Measurements: US7018639B1, “Vaccine antigens of Moraxella” (Commonwealth Scientific and Industrial Research Organisation, priority 1999, dated 2006)

System: M. bovis protease
Type: biochemical, Moraxella bovis
Conditions: 37° C.

Compound: O=S(=O)(F)Cc1ccccc1 [PMSF, phenylmethylsulfonyl fluoride]
- protease activity after inhibitor: zero
